Reference: ChEMBL document CHEMBL3856189, “Synthesis of novel diterpenoid analogs with in-vivo antitumor activity” (Eur J Med Chem, 2016)
pEC50, pIC50: −log10 of the molar value.

What was measured:
[1] = Antiproliferative activity against human MDA-MB-231 cells after 96 hrs by SRB assay; assay type: functional, cell-based; conditions: MDA-MB-231, 96 h
[2] = Antiproliferative activity against human MCF7 cells after 96 hrs by SRB assay; assay type: functional, cell-based; conditions: MCF7, 96 h
[3] = Antiproliferative activity against human T47D cells after 96 hrs by SRB assay; assay type: functional, cell-based
DU-145 = test: Selectivity index, ratio of IC50 for HAF cells to IC50 for human DU145 cells; assay type: functional
[4] = Selectivity index, ratio of IC50 for HAF cells to IC50 for human MDA-MB-231 cells; assay type: functional
[5] = Selectivity index, ratio of IC50 for HAF cells to IC50 for human HT-29 cells; assay type: functional
HL-60 = test: Selectivity index, ratio of IC50 for HAF cells to IC50 for human HL60 cells; assay type: functional
[6] = Antiproliferative activity against human HCT116 cells after 96 hrs by SRB assay; assay type: functional, cell-based; conditions: HCT-116, 96 h
[7] = Antiproliferative activity against HAF cells after 96 hrs by SRB assay; assay type: cell-based; conditions: Homo sapiens
PC-3 = test: Selectivity index, ratio of IC50 for HAF cells to IC50 for human PC3 cells; assay type: functional
MCF7 = test: Selectivity index, ratio of IC50 for HAF cells to IC50 for human MCF7 cells; assay type: functional
[8] = Antiproliferative activity against human PC3 cells after 96 hrs by SRB assay; assay type: functional, cell-based; conditions: PC-3, 96 h
[9] = Antiproliferative activity against human HL60 cells after 96 hrs by SRB assay; assay type: functional, cell-based; conditions: HL-60, 96 h
HCT-116 = test: Selectivity index, ratio of IC50 for HAF cells to IC50 for human HCT116 cells; assay type: functional
T47D [10] = test: Selectivity index, ratio of IC50 for HAF cells to IC50 for human T47D cells; assay type: functional
[11] = Antiproliferative activity against human HT-29 cells after 96 hrs by SRB assay; assay type: functional, cell-based; conditions: HT-29, 96 h
[12] = Antiproliferative activity against human DU145 cells after 96 hrs by SRB assay; assay type: functional, cell-based; conditions: DU-145, 96 h
Mus musculus [13] = test: Toxicity in nude mouse xenografted with human T47D cells assessed as body weight loss at 5 mg/kg/day, ip administered daily for 18 days measured every 3 days during compound dosing; assay type: organism-based; conditions: in vivo
Mus musculus [14] = test: Toxicity in nude mouse xenografted with human T47D cells assessed as organ damage at 5 mg/kg/day, ip administered daily for 18 days; assay type: organism-based; conditions: in vivo, 432 h
T47D [15] = test: Induction of apoptosis in human T47D cells assessed as late apoptotic cells at 10 uM after 48 hrs by Annexin V-FITC/propidium iodide staining based flow cytometry (reference value: 2.42 %); assay type: functional
T47D [16] = test: (§1) Antimigratory activity in human T47D cells assessed as inhibition of cell migration after 12 hrs by crystal violet staining based transwell migration assay; assay type: functional
[17] = as §1; assay type: functional
T47D [18] = test: Induction of apoptosis in human T47D cells assessed as early apoptotic cells at 5 uM after 48 hrs by Annexin V-FITC/propidium iodide staining based flow cytometry (reference value: 1.75 %); assay type: functional
T47D [19] = test: Induction of apoptosis in human T47D cells assessed as early apoptotic cells at 10 uM after 48 hrs by Annexin V-FITC/propidium iodide staining based flow cytometry (reference value: 1.75 %); assay type: functional
T47D [20] = test: Induction of apoptosis in human T47D cells assessed as late apoptotic cells at 5 uM after 48 hrs by Annexin V-FITC/propidium iodide staining based flow cytometry (reference value: 2.42 %); assay type: functional
Mus musculus [21] = test: Toxicity in nude mouse xenografted with human T47D cells assessed as diarrhoea at 5 mg/kg/day, ip administered daily for 18 days; assay type: organism-based; conditions: in vivo, 432 h
[22] = Antitumor activity against human T47D cells xenografted in nude mouse assessed as tumor weight at 5 mg/kg/day, ip administered daily for 18 days measured every 3 days during compound dosing (reference value: 882 +/- 149 mg); assay type: functional
T47D [23] = test: (§2) Inhibition of colony formation in human T47D cells after 7 days by crystal violet staining based assay; assay type: functional, cell-based
[24] = as §2; assay type: functional, cell-based; conditions: 168 h
T47D [25] = test: Induction of apoptosis in human T47D cells assessed as late apoptotic cells at 20 uM after 48 hrs by Annexin V-FITC/propidium iodide staining based flow cytometry (reference value: 2.42 %); assay type: functional
Mus musculus [26] = test: Acute toxicity in nude mouse xenografted with human T47D cells assessed as mortality at 5 to 40 mg/kg/day, ip administered daily for 18 days measured on day 18 post last dose; assay type: organism-based; conditions: in vivo, 432 h
[27] = Antitumor activity against human T47D cells xenografted in nude mouse assessed as tumor volume at 5 mg/kg/day, ip administered daily for 18 days measured every 3 days during compound dosing (reference value: 1220 +/- 127 mm3); assay type: functional
T47D [28] = test: Induction of apoptosis in human T47D cells assessed as early apoptotic cells at 20 uM after 48 hrs by Annexin V-FITC/propidium iodide staining based flow cytometry (reference value: 1.75 %); assay type: functional

CCNC(=O)c1cc2c(cc1OC)[C@@]1(C)CC[C@H](O)C(C)(C)[C@@H]1CC2
pIC50 [1]: 5.12 | pIC50 [2]: < 4.60 | pIC50 [3]: < 4.60

COc1ccc(NC(=O)c2cc3c(cc2OC)[C@@]2(C)CC[C@H](O)C(C)(C)[C@@H]2CC3)cc1
Ratio IC50 (DU-145): 10 | pIC50 [1]: 6.39 | Ratio IC50 [4]: 10 | pIC50 [2]: 6.55 | Ratio IC50 [5]: 10 | Ratio IC50 (HL-60): 10 | pIC50 [6]: 6.29 | pIC50 [7]: 5.40 | Ratio IC50 (PC-3): 10 | Ratio IC50 (MCF7): 10 | pIC50 [8]: 6.30 | pIC50 [9]: 6.39 | Ratio IC50 (HCT-116): 10 | pIC50 [3]: 7.52 | Ratio IC50 (T47D [10]): 10 | pIC50 [11]: 6.28 | pIC50 [12]: 6.27

COC(=O)c1ccc(NC(=O)c2cc3c(cc2OC)[C@@]2(C)CC[C@H](O)C(C)(C)[C@@H]2CC3)cc1
pIC50 [1]: 5.17 | pIC50 [2]: 5.34 | pIC50 [3]: 5.57

COc1cc2c(cc1C(=O)N(C)c1ccc(F)cc1)CC[C@H]1C(C)(C)[C@@H](O)CC[C@]21C
pIC50 [1]: < 4.60 | pIC50 [2]: < 4.60 | pIC50 [3]: < 4.60

COc1cc2c(cc1C(=O)Nc1ccc(C)cc1)CC[C@H]1C(C)(C)[C@@H](O)CC[C@]21C
Ratio IC50 (DU-145): 3.1 | pIC50 [1]: 5.91 | Ratio IC50 [4]: 3.1 | pIC50 [2]: 6.66 | Ratio IC50 [5]: 3.1 | Ratio IC50 (HL-60): 3.1 | pIC50 [6]: 6.03 | pIC50 [7]: 5.41 | Ratio IC50 (PC-3): 3.1 | Ratio IC50 (MCF7): 3.1 | pIC50 [8]: 5.83 | pIC50 [9]: 5.45 | Ratio IC50 (HCT-116): 3.1 | pIC50 [3]: 6.64 | Ratio IC50 (T47D [10]): 3.1 | pIC50 [11]: 6.55 | pIC50 [12]: 5.68

CC1(C)[C@@H](O)CC[C@]2(C)c3cc(O)c(C(=O)Nc4ccc(F)cc4)cc3CC[C@@H]12
pIC50 [1]: 5.03 | pIC50 [2]: 5.22 | pIC50 [3]: 5.59

COc1cc2c(cc1C(=O)Nc1ccccc1F)CC[C@H]1C(C)(C)[C@@H](O)CC[C@]21C
pIC50 [1]: < 4.60 | pIC50 [2]: < 4.60 | pIC50 [3]: < 4.60

COc1cc2c(cc1C(=O)Nc1cccc(Cl)c1)CC[C@H]1C(C)(C)[C@@H](O)CC[C@]21C
pIC50 [1]: 6.00 | pIC50 [2]: 5.65 | pIC50 [3]: 6.59

COc1ccccc1NC(=O)c1cc2c(cc1OC)[C@@]1(C)CC[C@H](O)C(C)(C)[C@@H]1CC2
pIC50 [1]: 6.70 | pIC50 [2]: 5.71 | pIC50 [3]: 7.52

COc1cc([C@@H]2c3cc4c(cc3[C@H](O)[C@H]3COC(=O)[C@H]23)OCO4)cc(OC)c1OC [PODOFILOX]
Activity (Mus musculus [13]): Toxic | Ratio IC50 (DU-145): 0.8 | Activity (Mus musculus [14]): Toxic | Activity (T47D [15]): 6.98% | Activity (T47D [16]): Dose-dependent effect | pEC50 [17]: 5.05 | Activity (T47D [18]): 4.97% | pIC50 [1]: 6.92 | Ratio IC50 [4]: 0.8 | Activity (T47D [19]): 7.47% | pIC50 [2]: 8.00 | Activity (T47D [20]): 4.45% | Ratio IC50 [5]: 0.8 | Activity (Mus musculus [21]): Toxic | Ratio IC50 (HL-60): 0.8 | Activity [22]: 200 mg | Activity (T47D [23]): Dose-dependent effect | pEC50 [24]: 8.53 | Activity (T47D [25]): 7.21% | pIC50 [6]: 7.70 | pIC50 [7]: 7.05 | Activity (Mus musculus [26]): Toxic | Ratio IC50 (PC-3): 0.8 | Ratio IC50 (MCF7): 0.8 | pIC50 [8]: 7.30 | Activity [27]: 407 mm3 | pIC50 [9]: 6.32 | Ratio IC50 (HCT-116): 0.8 | pIC50 [3]: 6.60 | Ratio IC50 (T47D [10]): 0.8 | Activity (T47D [28]): 11.86% | pIC50 [11]: 7.70 | pIC50 [12]: 8.00

COc1cc2c(cc1C(=O)NC1CCCCC1)CC[C@H]1C(C)(C)[C@@H](O)CC[C@]21C
pIC50 [1]: < 4.60 | pIC50 [2]: < 4.60 | pIC50 [3]: 4.96

COc1cc2c(cc1C(=O)Nc1ccc(O)cc1)CC[C@H]1C(C)(C)[C@@H](O)CC[C@]21C
pIC50 [1]: 5.72 | pIC50 [2]: 5.51 | pIC50 [3]: 7.15
